pIC50: −log10 of the molar value.

For the assay, the target named is T1, Recombinant Human ENPP-2/Autotaxin (Homo sapiens, UniProt Q13822).
T1 construct: purchased R&D systems 5255-EN
The assay is described as follows: LysoPLD activity measurement (autotaxin enzyme inhibition, choline release, TOOS reagent). As to conditions: LysoPLD inhibitory activity; substrate 14:0 LysoPC; absorbance at 555 nm. It counts as biochemical. A digest of the protocol: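 Enzyme and compound were preincubated for 30 min before adding 14:0 LysoPC substrate, diluted to 300 μM, for 90 minutes at 37° C. The choline product was quantified colorimetrically with TOOS reagent. Wells without compound held 1% DMSO.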
As usually defined, the pIC50 is the IC50 on a negative log10 scale, so that one unit is a factor of ten. With `O=C(O)c1cc(F)cc(C2(n3c(=O)n(-c4ccc(C5CCOCC5)cc4)c4cc(Cl)cnc43)CC2)c1` [Example 273, 3-(1-(6-chloro-2-oxo-1-(4-(tetrahydro-2H-pyran-4-yl)phenyl)-1,2-dihydro-3H-imidazo[4,5-b]pyridin-3-yl)cyclopropyl)-5-fluorobenzoic acid], the pIC50 is 7.00 to 8.00.

With `O=C(O)c1cc(F)cc(C2(n3c(=O)n(-c4ccc(N5CCOCC5)cc4)c4cc(Cl)cnc43)CC2)c1` [Example 274, 3-(1-(6-chloro-1-(4-morpholinophenyl)-2-oxo-1,2-dihydro-3H-imidazo[4,5-b]pyridin-3-yl)cyclopropyl)-5-fluorobenzoic acid], the pIC50 was over 8.00.

Take `O=C(O)c1cc(F)cc(C2(n3c(=O)n(-c4ccc(C(=O)N5CC6(CCOCC6)C5)cc4)c4cc(Cl)cnc43)CC2)c1` [Example 275, 3-(1-(1-(4-(7-oxa-2-azaspiro[3.5]nonane-2-carbonyl)phenyl)-6-chloro-2-oxo-1,2-dihydro-3H-imidazo[4,5-b]pyridin-3-yl)cyclopropyl)-5-fluorobenzoic acid]: the pIC50 was over 8.00.

On to `O=C(O)c1cc(F)cc(C2(n3c(=O)n(-c4ccc(C(=O)N5CCCC5)cc4)c4cc(Cl)cnc43)CC2)c1` [Example 276, 3-(1-(6-chloro-2-oxo-1-(4-(pyrrolidine-1-carbonyl)phenyl)-1,2-dihydro-3H-imidazo[4,5-b]pyridin-3-yl)cyclopropyl)-5-fluorobenzoic acid], for which the pIC50 was over 8.00.

The values above are taken from patent publication US20260265265A1, “NOVEL BENZIMIDAZOLONE DERIVATIVE COMPOUND AS AUTOTAXIN INHIBITOR” (LG CHEM, LTD., priority 2023, published 2026).
